Laboratory results reported in US8945597B2, “Botanical insecticides” (priority 2012, dated 2015).

tested on: pest insects; assay: Insecticidal properties of terpenes/terpenoids (test not described); conditions: tested and proved; test details not given

Row | Compound | insecticidal properties
1 | CC(C)[C@@H]1CC[C@@H](C)C[C@H]1O [3-p-menthanol] | significant insecticidal properties
2 | Cc1ccc(C(C)C)cc1 [p-cymene] | significant insecticidal properties
3 | CC12CCC(CC1)C(C)(C)O2 [1,8-cineole] | significant insecticidal properties
4 | C=C1CC/C=C(\C)CC[C@@H]2[C@@H]1CC2(C)C [β-caryophyllene] | significant insecticidal properties
5 | ocimene | significant insecticidal properties
6 | pinene | significant insecticidal properties
7 | C=CCS[S@@+]([O-])CC=C (stereo in doubt) [allicin] | significant insecticidal properties
8 | C[C@@H]1CC[C@H]2C(C)(C)C3C[C@@]12CC[C@@]3(C)O [Embodiment 8-epicedrol, 8-epicedrol] | significant insecticidal properties

tested on: Aphid nymphs (Aphis medicagini); assay: Insecticidal efficacy test against aphid nymphs (leaf disc dip); assay type: in vivo; conditions: concentration 20 mg/L; leaf disc dipped 5 seconds; mortality after 24 hours
Experimental: Insecticidal Efficacy Test Against Aphid Nymphs (Aphis medicagini)
Take the first preferred embodiment, diluted in water in two different concentrations, A with 1% weight content of active ingredients, B with 0.1% active ingredients. Vicia leaf cut into round disc in 2 cm diameter, back up placed on a small cotton ball, and then mounted in a Petri dish, 5 ml water is added. Mature aphids are transferred onto the leaf disc to hatch aphid nymphs. Mature aphids are removed after 24 hours and 20-30 aphid nymphs are left on the leave disc and continue to culture for one day. The leave disc with aphid nymphs is merged into solution A and B for 5 seconds, excessive fluid on the leaf surface is absorbed by paper tower. Leaf disc is then mounted back to the cotton ball for another 24 hours observation. Use Nitenpyram 20 mg/L for comparison and water as control.

Row | Compound | MOTALITY %
9 | CCN(Cc1ccc(Cl)nc1)/C(=C/[N+](=O)[O-])NC [Nitenpyram] | 100%

tested on: planthopper nymphs (nilaparvata legen); assay: Insecticidal efficacy test against planthopper nymphs (POTTER sprayer); assay type: in vivo; conditions: concentration 20 mg/L; sprayed; mid 3rd instar nymphs; mortality after 72 hours
Experimental: Insecticidal efficacy test against planthopper nymphs (nilaparvata legen). Some rice seedling leaves are mounted with white quartz sand in a Petri dish with 5 cm diameter containing 5 ml water. Planthoppers nymphs of mid 3rd instar were anesthetized by CO2. 20-30 anesthetized nymphs are transferred to each Petri dish and placed under the POTTER sprayer. Same amount of testing chemical is sprayed into each Petri dish and covered with transparent plastic cup. Use nitenpyram 20 mg/L for comparison and water as control.

Row | Compound | MOTALITY %
10 | CCN(Cc1ccc(Cl)nc1)/C(=C/[N+](=O)[O-])NC [Nitenpyram] | 100%
